Data from patent publication US8883771B2, “Bivalent inhibitors of IAP proteins and therapeutic methods using the same” (The Regents of the University of Michigan, priority 2012, dated 2014).

Key:
[1] = molecular target: XIAP linker-BIR2-BIR3 (residues 120-356) (Homo sapiens (Human), UniProt P98170); assay: Fluorescence polarization (FP) based competitive binding assay, XIAP linker-BIR2-BIR3; settings: FP competitive assay, Smac-1F probe; read-out: Binding Affinities IC50 (nM) XIAP Protein
Procedure: (§1) For cIAP-1 BIR3 and cIAP-2 BIR3 assays, a fluorescently labeled Smac mimetic (Smac-2F) was used as the fluorescent probe. The Kd values of Smac-2F to cIAP-1 BIR3 and cIAP-2 BIR3 were determined by monitoring the total fluorescence polarization of mixtures composed with the fluorescent probe at a fixed concentration and proteins with increasing concentrations up to full saturation. Fluorescence polarization values were measured using the Infinite M-1000 plate reader (Tecan U.S., Research Triangle Park, N.C.) in Microfluor 2 96-well, black, round-bottom plates (Thermo Scientific). To each well, 1 nM of SMAC-2F and increasing concentrations of protein were added to a final volume of 125 μl in the assay buffer (100 mM potassium phosphate, pH 7.5, 100 μg/ml bovine γ-globulin, 0.02% sodium azide, Invitrogen, with 4% DMSO). Plates were incubated at room temperature for 1-2 hours and mixed with gentle shaking to assure equilibrium. […] Equilibrium dissociation constants (Kd) were then calculated by fitting the sigmoidal dose-dependent FP increases as a function of protein concentrations using Graphpad Prism 5.0 software (Graphpad Software, San Diego, Calif.).
(§2) Mixtures of 5 μl of the tested compounds in DMSO and 120 μl of preincubated protein/tracer complex in the assay buffer (100 mM potassium phosphate, pH 7.5, 100 μg/ml bovine γ-globulin, 0.02% sodium azide, Invitrogen) were added into assay plates and incubated at room temperature for 2 hours with gentle shaking. Final concentrations of proteins and probes were 3 nM and 1 nM, 5 nM and 1 nM for assays for cIAP-1 BIR3 and cIAP-2 BIR3, respectively. […] FP values were measured as described above. IC50 values were determined by nonlinear regression fitting of the competition curves. The Ki values of competitive inhibitors were calculated using the derived equation described previously, based upon the measured IC50 values, the Kd values of the probe to different proteins, and the concentrations of the proteins and probes in the competitive assays.
The FP-based assay for XIAP linker-BIR2-BIR3 protein was performed with the same procedures. In this assay, a bivalent fluorescently tagged peptidic Smac mimetic (Smac-1F) was used as the fluorescent probe whose Kd value to XIAP linker-BIR2-BIR3 was determined similarly through the saturation experiments. 0.01% of Triton X-100 was added in the assay buffer to achieve stable fluorescence and polarization value of the dimeric fluorescent probe. Final protein and probe concentrations utilized in the competitive assay were 3 nM and 1 nM, respectively.

[2] = molecular target: cIAP1-BIR3 (residues 253-363) (Homo sapiens (Human), UniProt Q13490); assay: Fluorescence polarization (FP) based competitive binding assay, cIAP1-BIR3; settings: Smac-2F probe, read-out: Binding Affinities IC50 (nM) cIAP1 Protein
Procedure: as §1, §2

[3] = molecular target: cIAP-2 BIR3 (residues 238-349) (Homo sapiens (Human), UniProt Q13489); assay: Fluorescence polarization (FP) based competitive binding assay, cIAP-2 BIR3; settings: FP competitive assay, Smac-2F probe; read-out: Binding Affinities IC50 (nM) cIAP2 Protein
Procedure: as §1, §2

[4] = system: MDA-MB-231 breast cancer cell line; assay: Inhibition of cell growth in MDA-MB-231 breast cancer cell line; format: cell-based, human
[5] = system: SK-OV-3 ovarian cancer cell line; assay: Inhibition of cell growth in SK-OV-3 ovarian cancer cell line; format: cell-based, human
MDA-MB-231 xenograft = assay: Antitumor activity in the MDA-MB-231 xenograft model in nude mice; format: in vivo; settings: 3 mg/kg, weekly dose for 4 weeks (qwk×4, iv), start at average tumor volume 80 mm^3
Procedure: Treatments started when the tumors reached an average volume of 80 mm^3 Example 24 was given intravenously, weekly dose for 4 weeks (qwk×4, iv) at 10 mg/kg. Example 2 was given weekly dose for 4 weeks (qwk×4, iv) at 3 mg/kg. Control treatment was given vehicle control. Each group has 8-10 mice and each mouse has one tumor.

[6] = Homo sapiens, MDA-MB-231 breast cancer cell line
[7] = Homo sapiens, SK-OV-3 ovarian cancer cell line
[8] = Homo sapiens, MDA-MB-231, MDA-MB-231 breast cancer cell line
[9] = Homo sapiens, SK-OV-3, SK-OV-3 ovarian cancer cell line

SMILES | IC50 [1] [nM] | IC50 [2] [nM] | IC50 [3] [nM] | IC50 [4, 6] [nM] | IC50 [5, 7] [nM] | IC50 [4, 8] [nM] | IC50 [5, 9] [nM] | Antitumor activity (mean tumor volume) (MDA-MB-231 xenograft) | IC50 ([4]; MDA-MB-231 breast cancer cell line) [nM] | IC50 ([5]; SK-OV-3 ovarian cancer cell line) [nM]
CN[C@@H](C)C(=O)N[C@H]1CN(S(=O)(=O)CCCCCCS(=O)(=O)N2CC[C@H]3CC[C@@H](C(=O)NC(c4ccccc4)c4ccccc4)N3C(=O)[C@@H](NC(=O)[C@H](C)NC)C2)CC[C@H]2CCC(C(=O)NC(c3ccccc3)c3ccccc3)N2C1=O (stereo partly drawn) [Example 9] | < 10 | < 100 | < 100 | < 1000 | < 1000 | – | – | – | – | –
CN[C@@H](C)C(=O)N[C@H]1CN(C(=O)NCCCCCCNC(=O)N2CC[C@H]3CC[C@@H](C(=O)NC(c4ccccc4)c4ccccc4)N3C(=O)[C@@H](NC(=O)[C@H](C)NC)C2)CC[C@H]2CCC(C(=O)NC(c3ccccc3)c3ccccc3)N2C1=O (stereo partly drawn) [Example 13] | < 30 | < 300 | < 300 | – | – | < 100 | < 100 | – | – | –
CN[C@@H](C)C(=O)N[C@H]1CN(S(=O)(=O)CC/C=C/CCS(=O)(=O)N2CC[C@H]3CC[C@@H](C(=O)NC(c4ccccc4)c4ccccc4)N3C(=O)[C@@H](NC(=O)[C@H](C)NC)C2)CC[C@H]2CCC(C(=O)NC(c3ccccc3)c3ccccc3)N2C1=O (stereo partly drawn) [Example 7] | < 10 | < 300 | < 300 | < 1000 | < 1000 | – | – | – | – | –
CN[C@@H](C)C(=O)N[C@H]1CN(C(=O)NCCCCCCNC(=O)N2CC[C@H]3CC[C@@H](C(=O)N[C@@H]4CCC[C@H]4c4ccccc4)N3C(=O)[C@@H](NC(=O)[C@H](C)NC)C2)CC[C@H]2CCC(C(=O)N[C@@H]3CCC[C@H]3c3ccccc3)N2C1=O (stereo in doubt) [Example 43] | < 3000 | < 3000 | < 3000 | – | – | < 1000 | < 1000 | – | – | –
CN[C@@H](C)C(=O)N[C@H]1CN(C(=O)Nc2ccc(NC(=O)N3CC[C@H]4CC[C@@H](C(=O)N[C@@H]5CCC[C@H]5c5ccccc5)N4C(=O)[C@@H](NC(=O)[C@H](C)NC)C3)cc2)CC[C@H]2CC[C@@H](C(=O)N[C@@H]3CCC[C@H]3c3ccccc3)N2C1=O [Example 32] | < 3000 | < 3000 | < 3000 | – | – | < 1000 | < 1000 | – | – | –
CN[C@@H](C)C(=O)N[C@H]1CN(C(=O)NCCCCCCCCNC(=O)N2CC[C@H]3CC[C@@H](C(=O)N[C@@H]4CCCc5ccccc54)N3C(=O)[C@@H](NC(=O)[C@H](C)NC)C2)CC[C@H]2CCC(C(=O)N[C@@H]3CCCc4ccccc43)N2C1=O (stereo partly drawn) [Example 4] | < 10 | < 100 | < 100 | < 100 | < 100 | – | – | – | – | –
CN[C@@H](C)C(=O)N[C@H]1CN(C(=O)Nc2ccc(NC(=O)N3CC[C@H]4CC[C@@H](C(=O)NC(c5ccccc5)c5ccccc5)N4C(=O)[C@@H](NC(=O)[C@H](C)NC)C3)cc2)CC[C@H]2CCC(C(=O)NC(c3ccccc3)c3ccccc3)N2C1=O (stereo partly drawn) [Example 2] | – | – | – | – | – | – | – | Tumor regression was achieved | – | –
CN[C@@H](C)C(=O)N[C@H]1CN(C(=O)Nc2ccc(NC(=O)N3CC[C@H]4CC[C@@H](C(=O)N[C@H]5C[C@@H]5c5ccc(F)cc5)N4C(=O)[C@@H](NC(=O)[C@H](C)NC)C3)cc2)CC[C@H]2CC[C@@H](C(=O)N[C@H]3C[C@@H]3c3ccc(F)cc3)N2C1=O [Example 29] | < 1000 | < 1000 | < 1000 | – | – | < 5000 | < 5000 | – | – | –
CN[C@@H](C)C(=O)N[C@H]1CN(C(=O)NCc2cccc(CNC(=O)N3CC[C@H]4CC[C@@H](C(=O)N[C@@H]5CCCc6ccccc65)N4C(=O)[C@@H](NC(=O)[C@H](C)NC)C3)c2)CC[C@H]2CCC(C(=O)N[C@@H]3CCCc4ccccc43)N2C1=O (stereo partly drawn) [Example 6] | < 10 | < 100 | < 100 | < 100 | < 100 | – | – | – | – | –
CN[C@@H](C)C(=O)N[C@H]1CN(S(=O)(=O)CCC/C=C/CCCS(=O)(=O)N2CC[C@H]3CC[C@@H](C(=O)NC(c4ccccc4)c4ccccc4)N3C(=O)[C@@H](NC(=O)[C@H](C)NC)C2)CC[C@H]2CCC(C(=O)NC(c3ccccc3)c3ccccc3)N2C1=O (stereo partly drawn) [Example 8] | < 10 | < 100 | < 100 | < 1000 | < 1000 | – | – | – | – | –
CN[C@@H](C)C(=O)N[C@H]1CN(S(=O)(=O)CCCCCCCCS(=O)(=O)N2CC[C@H]3CC[C@@H](C(=O)NC(c4ccccc4)c4ccccc4)N3C(=O)[C@@H](NC(=O)[C@H](C)NC)C2)CC[C@H]2CCC(C(=O)NC(c3ccccc3)c3ccccc3)N2C1=O (stereo partly drawn) [Example 10] | < 10 | < 100 | < 100 | < 1000 | < 1000 | – | – | – | – | –
CN[C@@H](C)C(=O)N[C@H]1CN(C(=O)Nc2ccc(NC(=O)N3CC[C@H]4CC[C@@H](C(=O)N[C@H]5CCC[C@@H]5c5ccccc5)N4C(=O)[C@@H](NC(=O)[C@H](C)NC)C3)cc2)CC[C@H]2CC[C@@H](C(=O)N[C@H]3CCC[C@@H]3c3ccccc3)N2C1=O [Example 33] | < 3000 | < 3000 | < 3000 | – | – | < 1000 | < 1000 | – | – | –
CN[C@@H](C)C(=O)N[C@H]1CN(C(=O)Nc2ccc(NC(=O)N3CC[C@H]4CC[C@@H](C(=O)N[C@@H]5CCCc6ccccc65)N4C(=O)[C@@H](NC(=O)[C@H](C)NC)C3)cc2)CC[C@H]2CCC(C(=O)N[C@@H]3CCCc4ccccc43)N2C1=O (stereo partly drawn) [Example 5] | < 10 | < 100 | < 100 | – | – | < 100 | < 100 | – | – | –
CN[C@@H](C)C(=O)N[C@H]1CN(C(=O)NCCCCCCNC(=O)N2CC[C@H]3CC[C@@H](C(=O)N[C@@H]4CCC[C@@H]4c4ccccc4)N3C(=O)[C@@H](NC(=O)[C@H](C)NC)C2)CC[C@H]2CCC(C(=O)N[C@@H]3CCC[C@@H]3c3ccccc3)N2C1=O (stereo in doubt) [Example 44] | < 1000 | < 1000 | < 3000 | – | – | < 1000 | < 1000 | – | – | –
CN[C@@H](C)C(=O)N[C@H]1CN(C(=O)Nc2ccc(Cc3ccc(NC(=O)N4CC[C@H]5CC[C@@H](C(=O)N[C@@H]6CCCc7ccccc76)N5C(=O)[C@@H](NC(=O)[C@H](C)NC)C4)cc3)cc2)CC[C@H]2CCC(C(=O)N[C@@H]3CCCc4ccccc43)N2C1=O (stereo partly drawn) [Example 12] | < 10 | < 100 | < 100 | – | – | < 100 | < 100 | – | – | –
CN[C@@H](C)C(=O)N[C@H]1CN(C(=O)NCCCCCCNC(=O)N2CC[C@H]3CC[C@@H](C(=O)N[C@H]4CCCC[C@@H]4c4ccccc4)N3C(=O)[C@@H](NC(=O)[C@H](C)NC)C2)CC[C@H]2CCC(C(=O)N[C@H]3CCCC[C@@H]3c3ccccc3)N2C1=O (stereo in doubt) [Example 40] | < 3000 | < 3000 | < 3000 | – | – | – | – | – | < 10000 | < 10000
CN[C@@H](C)C(=O)N[C@H]1CN(C(=O)Nc2ccc(NC(=O)N3CC[C@H]4CC[C@@H](C(=O)N[C@@H]5CCC[C@@H]5c5ccccc5)N4C(=O)[C@@H](NC(=O)[C@H](C)NC)C3)cc2)CC[C@H]2CC[C@@H](C(=O)N[C@@H]3CCC[C@@H]3c3ccccc3)N2C1=O [Example 34] | < 1000 | < 1000 | < 1000 | – | – | < 100 | < 100 | – | – | –
